What was measured:
[1] = tested on: HR in human U-2 OS IndDR-GFP cells; test: Inducible I-SceI DR-GFP assay (IndDR-GFP), inhibition of HR; type: cell-based
Description: Exponentially growing U-2 OS IndDR-GFP cells were seeded at a density of 2 × 10^5 cells/well into 6-well plates with DMEM media containing 80 µg/mL G418 and indicated concentrations of RAD51i(s). For I-SceI induced samples, the media were supplemented with 0.5 µM Shield1 (Clontech, Mountain View, CA, USA) with 100 nM triamcinolone acetonide (Sigma, St. Louis, MO, USA). After 24 h of incubation, the media were removed, cells were washed with the DMEM, and the incubation continued for 48 h in DMEM containing 100 units/mL penicillin, 100 µg/mL streptomycin, and 80 µg/mL G418. Then, cells were trypsinized, trypsin solution was neutralized with an equal volume of media, and 10% formaldehyde solution in PBS was added for fixation to reach a final concentration of formaldehyde of 3.3%. The yield of GFP-positive cells indicative of HR activity was measured by flow cytometry with the Guava easyCyte system, and the data were analyzed with the InCyte program (Millipore; Burlington, VT, USA).

[2] = tested on: MCF 10A cells; test: Cell viability assay (Guava ViaCount flow cytometry), MCF 10A; type: cell-based, human
Description: For all cell viability experiments, except experiments involving MMS treatment, cells were seeded into the media containing indicated concentrations of tested compounds or corresponding amounts of DMSO in controls. The concentration of DMSO in media was 0.1%. MDA-MB-231 cells were seeded into 24-well plates at 3.5 × 10^4 cells/well for cells for a 4-day treatment or at 5000 cells/well for a 10-day treatment. MCF 10A cells were seeded into 24-well plates at 1.5 × 10^4 cells/well for a 4-day treatment or at 500 cells/well for a 10-day treatment. In the case of 10-day treatments, the media with compounds were renewed twice on the 4th and the 7th days of treatments. After completion of the treatments, cells were harvested, and their viability was determined by flow cytometry with Guava ViaCount reagent (Luminex; Austin, TX USA). Data were analyzed using the Guava ViaCount software (Millipore; Burlington, VT, USA). The IC50 values were calculated using the GraphPad Prism 5 software (San Diego, CA, USA).

[3] = tested on: MCF 10A cells; test: EdU cell proliferation assay, MCF 10A; type: cell-based, human; conditions: 24 h
Description: Exponentially growing MDA-MB-231 and MCF 10A cells were seeded into 6-well plates at a density of 1.5 × 10^5 cells/well in the presence of indicated concentrations of B02-iso or 0.1% DMSO (for control cells). After 24 h of incubation, cells were labeled with 10 µM Edu (Invitrogen; Waltham, […], USA) for 1 h or left unlabeled in the control. Cells were harvested and centrifuged at 500× g, 4 °C for 5 min, and cell pellets were washed with PBS supplemented with 1% BSA, spun down, and fixed with 4% methanol-free formaldehyde (Pierce) in PBS for 15 min. Cells were washed with PBS containing 1% BSA, centrifuged 500× g for 5 min. Cell pellets were resuspended in PBS containing 0.1% Triton X-100 and incubated for 15 min for permeabilization. Cells were spun down, resuspended in freshly prepared Edu click labeling solution (1 mM CuSO4, 1.25 µM Alexa Fluor 488 Azide (Invitrogen; Waltham, […], USA), 50 mM ascorbic acid in PBS) and incubated for 30 min in the dark. Cells were washed twice with PBS containing 0.1% Triton X-100, resuspended in the same buffer, and analyzed for Edu incorporation by flow cytometry using the Guava easyCyte system (Millipore; Burlington, VT, USA) with the InCyte software (Millipore; Burlington, VT, USA).

[4] = tested on: RAD51 foci in U-2 OS IndDR-GFP cells; test: RAD51 foci formation (immunofluorescence); type: cell-based, human; conditions: 30 µM
Description: U-2 OS IndDR-GFP cells were seeded into 8-well polystyrene vessel culture slides at 5 × 10^4 cells/well. The next day, cells were pretreated with B02-iso or 0.1% DMSO (for control cells) for 1 h, followed by the treatment with 5 µM cisplatin for 4 h or left untreated (for control cells). After 4 h of incubation, cells were placed on ice, washed with PBS buffer (twice, 5 min each), pretreated with 0.5% Triton X-100 for 5 min, washed with PBS (twice, 5 min each). Cells were removed from ice and fixed with 4% methanol-free formaldehyde (Pierce; Waltham, […], USA) in PBS for 10 min. Cells were washed with PBS (twice, 5 min each), placed on ice, and permeabilized with 1% Triton X-100 in PBS for 10 min. Cells were removed from ice, washed with PBS (once, 5 min), blocked with a blocking buffer (5% BSA (Bovine Serum Albumin) in PBS) for 30 min, and incubated with rabbit polyclonal RAD51 antibody (1:1000, GeneTex, GTX100469) and mouse monoclonal anti-phospho-histone H2A.X (Ser 139) antibody (1:20,000, clone JBW301, Millipore 05-636) in blocking buffer, containing 0.3% Triton X-100 overnight at 4 °C. […] For foci quantification, 50 cells were chosen for each treatment condition at random, and foci number was counted using ImageJ software. […]

IC50 ([1]; Homo sapiens, U2OS, U-2 OS IndDR-GFP cells, 24 h with compound, ± SD, read-out: IC50, efficiency of HR inhibition in IndDR-GFP assay): 4.3 ± 0.75 µM
Compound: O=c1nc(/C=C/c2cccnc2)n(Cc2ccccc2)c2ccccc12 [B02-iso]
Improvement of potency (HR inhibition) versus B02 ([1]; IndDR-GFP IC50 of B02-iso vs B02): approximately four-fold
Times lower sensitivity of MCF 10A compared with MDA-MB-231 ([2]; 4-day treatment, ratio of IC50): approximately 3
IC50 ([2]; Homo sapiens, 96 h, MCF 10A, 4-day treatment): 11.9 µM
Effect on cell viability in combination with olaparib ([2]; MCF 10A, 1.8 µM B02-iso, same range of olaparib concentrations, 10-day treatment): did not decrease cell viability
Fraction of DNA-replicating cells (EdU) ([3]; 4 µM): dropped approximately two-fold
Fraction of DNA-replicating cells (EdU) ([3]; 8 µM): abolished almost entirely
RAD51 foci formation, compound alone ([4]; 1 h, no cisplatin): did not significantly affect RAD51 foci formation
RAD51 foci formation induced by cisplatin ([4]; 1 h pretreatment, then 5 µM cisplatin 4 h): almost completely eliminated RAD51 foci formation

From paper PMC8235719, “New RAD51 Inhibitors to Target Homologous Recombination in Human Cells” (Genes, 2021)
